From PMC10290335 (Malaria Journal, 2023)

Key:
[1] = Clinical pharmacokinetics of ivermectin metabolites in blood of healthy volunteers; format: in vivo, human; settings: for Tmax / Cmax [ratio] / Half-life / MRTlast: whole blood, 12 subjects, mean ± SE; for Tmax: single oral 12 mg ivermectin; for Cmax [ratio]: area/internal standard area ratio; for Cmax [ratio] / Half-life / MRTlast: 12 mg ivermectin, NCA
Protocol: Peripheral venous blood samples were collected before dosing and after 1, 2, 4, 6, 8, 12, 24, 48 and 72 h. Blood samples (50 µL) were extracted by the addition of 150 µL ISTD solution. Samples were mixed for 1 min and centrifuged for 30 min at 3220×g and 15 °C (5810 R centrifuge). Twenty microlitres of supernatant were injected into the LC–MS/MS system to determine the signal intensity of the metabolites.
The different LC–MS/MS settings were applied for the metabolism, pharmacokinetic and metabolite fractioning assays (Additional file 1: Table S1, S2, S3). All analyses were performed on a modular HPLC (Shimadzu, Kyoto, Japan) composed of four pumps (2 × LC-30AD, 2 × LC-20AD), an autosampler (SIL 30-AC MP), a system controller (CBM-20A), two degassing units (DGU-20A5 and DGU-20A3R), a column oven (CTO-20AC), a low-pressure valve (FCV-12AH), and a fraction collector (FRC-12A). The HPLC system was connected to an API 5000 triple quadrupole mass spectrometer (AB Sciex, Ontario, Canada) that was equipped with a turbo electrospray ionization source. The system was operated with Analyst Software 1.7 (AB Sciex) and acquired data were analysed using MultiQuant Software 3.0.3 (AB Sciex).
The integral method “linear up log down” was used on area/internal standard area ratio.
In total, three T0 blank blood samples originating from different PK study participants were used to resuspend the metabolites (Additional file 1: Table S5). The signal intensity was recorded for every metabolite by extracting the 50 µL blood with 150 µL of ISTD solution. The metabolite peak area was determined by LC–MS/MS (see section LC-MS/MS analysis of ivermectin). Moreover, the PK samples of all study participants were equally extracted and analysed to derive the maximal blood level (Cmax) from the blood level-time curves. Afterwards, the mean metabolite peak area of the spiked blank blood was compared with the mean peak area of the Cmax samples (Additional file 1: Table S5). The amount of each metabolite fraction was either reduced or increased to match the peak area of Cmax samples. If the metabolite was not detectable in PK samples, the amount of metabolite was adjusted to the lower limit of detection of the method. In this case, blank blood was spiked with the metabolite fraction to receive a signal intensity that is three times larger than the corresponding noise level.

[2] = system: Anopheles stephensi mosquitoes; assay: Anopheles stephensi membrane feeding screening assay (survival and activity); format: in vivo; settings: for Average activity score: score +2 flying, +1 moving, 0 dead; for activity against An. stephensi: at Cmax levels observed in clinical PK samples
Protocol: The final DMSO content in blood was 0.1%, which was also the DMSO concentration used for the negative control assays (0.1% DMSO in blank blood). Inclusion of blank fractions as additional negative controls were not considered, because it would not have been feasible to also test the corresponding blank fraction for each metabolite fraction (F1–F9). The blood preparations were rotated at room temperature for 20 min to ensure a uniform metabolite distribution (Rotator Genie, Scientific Industries, Bohemia, USA). The dissolution of the metabolites was confirmed by LC–MS/MS.
Around 50–70 female mosquitoes aged 5–10 days post-emergence were transferred with a mouth aspirator into 20 mL paper cups. A piece of mosquito netting was used to cover the cups. Mosquitoes were starved for 24 h before treatment. The mosquito blood meals were heated in a water bath (SAHARA PPO S5P Heated Bath Circulators, Thermo Fisher Scientific, New Hampshire, USA) for 20 min at 39 °C. A Petri dish (35 mm × 10 mm, BD, Franklin Lakes, USA) was filled with 3 mL of warm blood, sealed with a piece of sealing film (Parafilm®, Huberlab AG, Aesch, Switzerland). The Petri dish was placed upside down on top of the net sealing the paper cup. Female mosquitoes were allowed to feed for 20 min on the blood through the net and the sealing film. The feeding was conducted in a climate chamber (HPP110, Memmert GmbH + Co.KG, Schwabach, Germany) at 27 °C, 70% humidity, and 30% light intensity. After feeding, the cups were put on ice to immobilise the mosquitoes and only the fully engorged mosquitoes were selected for the assay. The mosquitoes were returned to the climate chamber to assess their activity and survival for 3 days.
In the framework of screening assays, mosquitoes were treated with blood containing each metabolite corresponding to Cmax levels observed in PK samples. […] In screening assays, eleven treatments were evaluated with three replicates using three batches of 50–70 mosquitoes.

[3] = mean of PK subjects 1-12, 50 µL blood

Molecule	Observed Cmax, peak area ([1]; PK subject 1, 50 µL blood) [counts]	Observed Cmax, peak area ([1]; PK subject 2, 50 µL blood) [counts]	Observed Cmax, peak area ([1]; PK subject 3, 50 µL blood) [counts]	Observed Cmax, peak area ([1]; PK subject 4, 50 µL blood) [counts]	Observed Cmax, peak area ([1]; PK subject 5, 50 µL blood) [counts]	Observed Cmax, peak area ([1]; PK subject 6, 50 µL blood) [counts]	Observed Cmax, peak area ([1]; PK subject 7, 50 µL blood) [counts]	Observed Cmax, peak area ([1]; PK subject 8, 50 µL blood) [counts]	Observed Cmax, peak area ([1]; PK subject 9, 50 µL blood) [counts]	Observed Cmax, peak area ([1]; PK subject 10, 50 µL blood) [counts]	Observed Cmax, peak area ([1]; PK subject 11, 50 µL blood) [counts]	Observed Cmax, peak area ([1]; PK subject 12, 50 µL blood) [counts]	Observed Cmax, peak area [1, 3] [counts]	Tmax [1] [h]	Average activity score ([2]; 0 h post feeding)	Average activity score ([2]; 24 h post feeding)	Average activity score ([2]; 48 h post feeding)	Average activity score ([2]; 72 h post feeding)	Cmax [ratio] [1] [ratio]	Half-life [1] [h]	other results
26-hydroxy-H2B1a monosaccharide [M7]	1.31E+03	7.70E+02	9.70E+02	7.68E+02	8.12E+02	1.39E+03	1.26E+03	1.09E+03	7.88E+02	9.63E+02	1.21E+03	9.57E+02	1.02E+03	6.1 ± 0.4	2.00	1.85	1.80	1.69			
CC[C@H](C)[C@H]1O[C@]2(CC[C@@H]1CO)C[C@@H]1C[C@@H](C/C=C(\C)[C@@H](O[C@H]3C[C@H](OC)[C@@H](O)[C@H](C)O3)[C@@H](C)/C=C/C=C3\CO[C@@H]4[C@H](O)C(C)=C[C@@H](C(=O)O1)[C@]34O)O2 [M5, 24-hydroxy-H2B1a monosaccharide]	7.86E+02	5.85E+02	1.01E+03	7.22E+02	6.06E+02	1.25E+03	8.58E+02	6.84E+02	6.59E+02	7.23E+02	8.95E+02	7.29E+02	7.92E+02	6.4 ± 0.4	2.00	1.90	1.86	1.81			
3″-O-desmethyl, 26-hydroxy-H2B1a [M6]	3.04E+03	1.56E+03	2.10E+03	1.60E+03	1.15E+03	3.23E+03	1.62E+03	1.82E+03	1.80E+03	1.99E+03	2.12E+03	2.69E+03	2.06E+03	5.4 ± 0.4	2.00	1.89	1.91	1.42	0.002 ± 0.0002	32.4 ± 4.1	MRTlast [1]: 18.3 ± 1.6 h; activity against An. stephensi [2]: minor mosquitocidal properties; mean survival of mosquitoes after blood meal ([2]; blood meal at Cmax level): decreased
26-hydroxy-H2B1a [M3]	6.21E+03	3.33E+03	4.98E+03	2.70E+03	3.63E+03	5.52E+03	4.44E+03	4.04E+03	3.41E+03	4.42E+03	4.22E+03	4.51E+03	4.28E+03	5.3 ± 0.2	2.00	1.82	1.86	1.67	0.003 ± 0.0003	15.9 ± 2.8	MRTlast [1]: 13.9 ± 1.3 h
4, 26-dihydroxy- H2B1a [M8]	7.02E+02	5.34E+02	4.91E+02	3.41E+02	3.43E+02	6.41E+02	3.42E+02	4.91E+02	4.29E+02	4.93E+02	2.79E+02	4.55E+02	4.62E+02	5.0 ± 0.3	2.00	1.91	1.93	1.68			
CCC(C)C1OC2(CCC1C)CC1CC(CC=C(C)C(OC3CC(OC)C(OC4CC(O)C(O)C(C)O4)C(C)O3)C(C)C=CC=C3COC4C(O)C(CO)=CC(C(=O)O1)C34O)O2 (centres unmarked) [M4, 3″-O-desmethyl, 4-hydroxy-H2B1a]	6.13E+03	4.65E+03	5.03E+03	4.08E+03	2.43E+03	7.98E+03	4.09E+03	5.21E+03	4.12E+03	5.38E+03	5.67E+03	5.92E+03	5.06E+03	6.0 ± 0.2	2.00	1.84	1.30	0.57	0.004 ± 0.0004	57.5 ± 13.2	MRTlast [1]: 29.4 ± 1.7 h; activity against An. stephensi [2]: minor mosquitocidal properties; mean survival of mosquitoes after blood meal ([2]; blood meal at Cmax level): decreased; mosquito survival ([2]; blood meal at Cmax level, observation period of 3 days): 35%
